How the values were obtained:
[1] = test system: P. falciparum stage V male gametocytes (male gamete formation); experiment: P. falciparum dual gamete formation assay (Pf DGFA), male readout (exflagellation), 48 h carry-over format; format: cell-based, Plasmodium falciparum NF54; conditions: primary screen, 2 uM, 48 h incubation, single replicate
[2] = test system: P. falciparum stage V female gametocytes (female gamete formation); experiment: P. falciparum dual gamete formation assay (Pf DGFA), female readout (Pfs25 expression), 48 h carry-over format; format: cell-based, Plasmodium falciparum NF54; conditions: primary screen, 2 uM, 48 h incubation, single replicate

SMILES	%Inhibition Male @2uM [1] [%]	%Inhibition Female @2uM [2] [%]
CCc1ccc(CN(C)C(=O)C2CC(=O)N(c3cccc(O)c3)C2)nc1 (stereo not shown) [DDD01246796]	126.32	<30
C=C1C(C)(C)[C@@H]2CC[C@]1(C(=O)N1CCC(n3cc(CCO)nn3)CC1)C2 [DDD01246808]	<30	30.26
COCCN(C)CCN1CC2(CCN(C3CCSC3)CC2)OC1=O (stereo not shown) [DDD01246844]	176.84	<30
Cc1cccc(C(=O)N2CCCC(c3nccn3Cc3cscn3)C2)n1 (stereo not shown) [DDD01247041]	160.00	<30
Cc1ccccc1OCC(=O)N1CCOC2(CNCCOC2)C1 (stereo not shown) [DDD01247077]	174.44	<30
COc1cccc(Cn2c(C)c(C)oc2=O)c1OC [DDD01247327]	<30	30.45
CN(C)CC(=O)NC1CC(C)(C)Cc2nc(C(C)(C)C)ncc21 (stereo not shown) [DDD01247509]	<30	43.65
c1cc(CN2CCC(c3ccncc3)CC2)cc(Cn2cccn2)c1 [DDD01247553]	75.89	<30
CCNC(=O)[C@@H]1C[C@H](N)CN1C(=O)C1(c2ccc(OC)cc2)CCCC1 [DDD01247775]	<30	31.68
Cc1ccc(CN(Cc2ccncc2)C2CCN(C)CC2)s1 [DDD01247850]	<30	35.49
CSc1nccc(N2CCC(=O)N(CC3CC3)C(C(C)C)C2)n1 (stereo not shown) [DDD01248006]	91.33	<30
CCn1c(C2CCCN(C(=O)c3ccc[nH]3)C2)nn(CCN(C)C)c1=O (stereo not shown) [DDD01248239]	83.64	<30
CCc1ccc(CN(C)Cc2cnc(S(=O)(=O)CC)n2CCOC)cc1 [DDD01248618]	143.16	<30
O=C(O)C1(Oc2ccccc2F)CCN(C/C=C/c2ccco2)CC1 [DDD01248641]	<30	35.65
CN(C)C(=O)NCc1cc2n(n1)CCCN(CC1CCCNC1)C2 (stereo not shown) [DDD01248722]	166.37	<30
Cc1cccc2[nH]c(C3CCN(C(=O)c4ccc[nH]4)CC3)nc12 [DDD01248889]	179.77	<30
Cc1nc2cc(OCc3nc(C(=O)NC(C)(CO)CO)co3)ccc2s1 [DDD01248928]	109.47	<30
Cc1cccc(N2CCC(N3CCCC4(CNC(=O)O4)C3)CC2)c1C (stereo not shown) [DDD01248972]	<30	36.41
CCCn1cc(C(=O)NC2CCC(n3cnnc3)CC2)c(C)n1 (stereo not shown) [DDD01249122]	90.61	<30
COc1cccc2c1OCC(C(=O)N1CCSCC1)C2 (stereo not shown) [DDD01249304]	51.06	<30
O=C(c1ccccc1)N1CCCC(Nc2ccc(F)cc2)C1 (stereo not shown) [DDD01249390]	180.87	<30
Cc1noc(CN(C)C(=O)c2[nH]nc(N)c2-c2ccccc2)n1 [DDD01249532]	<30	61.65
Cc1nn(C)c2nc(N(C)CC3CCN(CC(C)C)C3)sc12 (stereo not shown) [DDD01249587]	<30	47.43
COc1cccc(OC2CN(C(=O)c3sccc3C)C2)c1 [DDD01250000]	<30	64.75
CN1CCC(N(C)C[C@H]2CC[C@@H](Cc3ccc4occc4c3)O2)CC1 [DDD01250070]	<30	33.03
CCc1nn(C)c(Cl)c1CN1CCCC2(CC1)CN(C)C(=O)O2 (stereo not shown) [DDD01250081]	<30	32.84

— publication PMC6143625, “A high throughput screen for next-generation leads targeting malaria parasite transmission” (Nature Communications, 2018)
